Assay results: patent publication US6387955B1, “Enhanced anti-angiogenic activity of permanently charged derivatives of steroid hormones” (Pharmos Corporation, priority 1997, dated 2002)

How the values were obtained:
MCF-7 tumors [1] = experiment: Growth of MCF-7 tumors implanted in ventral fat pad of nude mice, tumor size by MRI; type: in vivo; details: for change in tumor size relative to day 0 (in words): slow-release pellet s.c. in flank, 25 day time course, MRI
Experimental: (§1) Female CD1-nu/nu athymic mice (6 weeks old) were obtained from the Weizmann Institute Department of Animal Services. MCF-7 cells, serially passed as described above, were detached from the culturing flasks with 0.03% EDTA in phosphate buffered saline (PBS) and washed several times in normal saline. Cells (10^7/innoculum) were then injected into the ventral fat pad at the level of the breast. Coincident with cell introduction, a slow-release pellet of estradiol (0.72 mg/pellet, 45-day release profile; Innovative Research, Sarasota, Fla.) was implanted subcutaneously in the flank of the animal. Mice were anesthetized with ketamine/Rompun (i.p.) for the surgical procedures. […] At this point, animals were randomized into four study groups. In the first, the estrogen pellet was removed and replaced with a slow-release TMI-laden pellet (6.3 mg, 45-day release) (n=5). In the second group, the estrogen pellet was removed and replaced with a tamoxifen pellet (n=7). The third group was treated with a blank (placebo) pellet (n=5), while the fourth group was reimplanted with an estradiol pellet (n=4). TMI and placebo-treated animals were imaged (under ketamine/Rompun anesthesia) either immediately before pellet exchange (day 0) or at day 3, 6, 12 and 25 after pellet exchange.
MRI images were recorded with a Bruker 4.7 (tesla)/30 Biospec spectrometer (Bruker Medizintechnik, Rheinstetten, Germany). 1H Spin-echo images were recorded at 200.12 MHz using a custom-made 4.5 cm rf coil with an image data matrix of 256×128 pixels. Pilot scans of the tumors were completed using a fast transverse multi-slice spin-echo sequence (giving T1-weighted spectra; inter-echo time (TE)=16 msec, recovery time (TR)=500 msec) followed by T2-weighted sequences in which axial slices perpendicular to the spine (i.e., a coronal orientation) were recorded. In the latter case, spin-echo images were obtained using a 4 cm field of view, 1 mm slice thickness, 1.2 mm slice-to-slice distance and a four-sequence average. The TE and TR were optimized to provide the best image contrast generating values of 80 and 3200 msec, respectively. This gave a total imaging time of approximately 30 min. […] Tumor size was calculated using a slice-to-slice reconstruction in which the slice surface area was obtained from histograms provided by the resident Bruker software package using the following relationship: […]
where XSA is the cross-sectional area of an internal slice, ES is the cross-sectional area of an edge slice, l is the slice thickness and ssd is the distance from the middle of one slice to the middle of the next. For image analysis, the average pixel intensity of viable portions of MCF-7 tumors was determined from a central tumor slice using histograms generated by the dedicated Bruker software package. […]

[2] = system: MCF-7 human breast cancer; details: MCF-7 human breast cancer implanted in nude mice; cited from earlier work
[3] = system: gelatinase A (MMP-2), 72 kDa; experiment: Collagenolytic activity by zymography in human fibrosarcoma cell supernatant, gelatinase A; type: cell-based
Experimental: (§2) HT-1080 cells (CCL 121), derived from a metastatic lesion of a human fibrosarcoma and primary bovine endothelial cells were obtained from the American Type Culture collection (Rockville, Md.). Cells were maintained under an atmosphere of 5% CO2, in Dulbecco's Minimal Essential Medium (DMEM) supplemented with 10% fetal calf serum, glutamine, vitamins, non-essential amino acids and antibiotics (Biological Industries, Kibbutz Beth HaEmek, Israel).
(§3) Sub-confluent cell cultures were incubated for 6 to 24 hours in serum-free DMEM, either with or without various concentrations of TMI or tamoxifen, and the resultant supernatant was analyzed for collagenolytic activity. The collagenolytic activity was determined using a gelatin-impregnated (1 mg/ml, Difco, Detroit Mich.) SDS-PAGE 8% gel, as previously described, with minor modifications. Briefly, the culture media samples were separated on the substrate-impregnated gels under non-reducing conditions, followed by 30 min of incubation of 2.5% Triton X-100 (BDH, UK). The gels were then incubated for 16 hours at 37° C. in 50 mM TRIS, 0.2 M NaCl, 5 mM CaCl2, 0.02% BRIJ 35 (w/v) at pH 7.6. […] The intensity of the stained bands was then determined using a computerized densitometer (Molecular Dynamics Model 300A). […]

[4] = system: gelatinase B (MMP-9), 92 kDa; experiment: Collagenolytic activity by zymography in human fibrosarcoma cell supernatant, gelatinase B; type: cell-based
Experimental: as §2, §3

MCF-7 tumors [5] = experiment: Tumor necrosis in MCF-7 tumors by T2-weighted MRI; type: in vivo, nude mice
Experimental: as §1
MRI images were recorded with a Bruker 4.7 (tesla)/30 Biospec spectrometer (Bruker Medizintechnik, Rheinstetten, Germany). 1H Spin-echo images were recorded at 200.12 MHz using a custom-made 4.5 cm rf coil with an image data matrix of 256×128 pixels. Pilot scans of the tumors were completed using a fast transverse multi-slice spin-echo sequence (giving T1-weighted spectra; inter-echo time (TE)=16 msec, recovery time (TR)=500 msec) followed by T2-weighted sequences in which axial slices perpendicular to the spine (i.e., a coronal orientation) were recorded. In the latter case, spin-echo images were obtained using a 4 cm field of view, 1 mm slice thickness, 1.2 mm slice-to-slice distance and a four-sequence average. The TE and TR were optimized to provide the best image contrast generating values of 80 and 3200 msec, respectively. This gave a total imaging time of approximately 30 min. Under the conditions reported, the in-plane resolution was 155×310 μm. Tumor size was calculated using a slice-to-slice reconstruction in which the slice surface area was obtained from histograms provided by the resident Bruker software package using the following relationship:
where XSA is the cross-sectional area of an internal slice, ES is the cross-sectional area of an edge slice, l is the slice thickness and ssd is the distance from the middle of one slice to the middle of the next. For image analysis, the average pixel intensity of viable portions of MCF-7 tumors was determined from a central tumor slice using histograms generated by the dedicated Bruker software package. […] Fibrosis was defined as those areas manifesting a decrease in pixel intensity of […].
In vivo tumor histology was assessed for TMI and placebo-treated tumors using T2-weighted MR images. […] At this time, the area of necrosis was two-fold higher than that observed on day 0 (increasing from an average of 20% to approximately 40%).

Tolerability in mice = type: in vivo
MCF-7 tumor = experiment: TBB in the MCF-7 model, daily dosing (preliminary data); type: in vivo, mice; details: two weeks of daily dosing
Text: Preliminary data on TBB in the MCF-7 model have also been generated. […] Administration of TBB to MCF-7 tumor-bearing mice caused significant tumor regression that amounted to 32% over two weeks of daily dosing. TMI induced a 20% regression over a 25 day time course.

[6] = doses 0.5 to 20 μM, 6 and 24 hours, result at or up to 20 μM
[7] = direct comparison, human fibrosarcoma cells

Molecule	change in tumor size relative to day 0 (in words) (MCF-7 tumors [1])	effect on tumor growth [2]	inhibition of gelatinase A (MMP-2) collagenolytic activity [3, 6]	inhibition of gelatinase B (MMP-9) collagenolytic activity [4, 6]	maximum extent of necrosis (MCF-7 tumors [5]; preliminary comparison of TMI and tamoxifen) [%]	onset of tumor necrosis (MCF-7 tumors [5]; sampling day after pellet exchange) [days]	tolerance of tumors to the drug and regrowth over time (MCF-7 tumors [1]; MCF-7 tumors in nude mice)	adverse effects (Tolerability in mice; doses as high as 10 mg/Kg given daily over a two week time course)	tolerability (Tolerability in mice; mice)	potency relative to TMI as inhibitor of 72 kDa (gelatinase A, MMP-2) collagenase [3, 7]	potency relative to TMI as inhibitor of 92 kDa (gelatinase B, MMP-9) collagenase [4, 7]	tumor regression (MCF-7 tumor) [%]
C[C@]12CC[C@@H]3c4ccc(O)cc4CC[C@H]3[C@@H]1CC[C@@H]2O [estrogen, estradiol]	more than doubled in size											
CC/C(=C(\c1ccccc1)c1ccc(OCCN(C)C)cc1)c1ccccc1 [tamoxifen, reference compound]	tumoristatic	merely slowed tumor growth	no significant inhibitory activity	no significant inhibitory activity	50	≤ 3	became tolerant to the effects of the drug and began to regrow over time					
Tamoxifen benzyl bromide [TBB]								no adverse effects	well tolerated	more potent than TMI	more potent than TMI	32
